Test [1] deals with IL-17A production in anti-CD3/anti-CD28 stimulated peripheral blood mononuclear cells (PBMCs). Put plainly: Peripheral blood mononuclear cell (PBMC) IL-17 assay. It is filed as cell-based. The note with it: Homo sapiens, 120 h, inhibition of IL-17A production, 5 days, IL-17 ELISA, read-out: mean pIC50 (converted). As to the method:
The assay procedure and results are described below.
This assay is designed to measure the levels of IL-17A secreted from anti-CD3/anti-CD28 stimulated PBMCs with the aim of measuring RORγ mediated inhibition of IL-17A production.
The assay medium consists of 90% RPMI 1640 (Lonza), 10% heat inactivated fetal bovin serum (FBS, Lonza) and 100 U/mL penicillin/streptomycin solution.
Anti-CD3 antibody (BD Pharmingen) was diluted to 10 μg/ml in PBS (Lonza). 30 μL of 10 μg/ml anti-CD3 solution was added to the inner 60 wells, excluding any negative control wells, of a 96-well cell culture treated U-bottom plate (Greiner). Plates were incubated overnight (16-24 hours) at 37° C. and 5% CO2.
Peripheral blood mononuclear cells were separated from buffy coats (Sanquin) using Ficoll-Paque PREMIUM separation medium (GE Healthcare Life Sciences) according to manufacturer's protocol and re-suspended in assay medium at 37° C.
Test compounds were diluted, starting from a 10 mM dimethylsulfoxide (DMSO) stock solution, to serial dilutions in DMSO at 200× the final test concentration. Subsequently, these solutions were diluted in two dilution steps in assay medium to 10× the final test concentration. The DMSO concentration of the 10× test compound solution was 5%.
Anti-CD28 antibody (BD Pharmingen) was diluted to 20 μg/mL in PBS. The PBMCs were diluted to a concentration of 2.5×10^6 cells/mL in assay medium at 37° C.
For compound screening, the anti-CD3 coated plates were washed three times with PBS, the wells were subsequently aspirated using vacuum. To each screening well 80 μL of the PBMC suspension, 10 μL of the anti-CD28 solution and 10 μL of the 10× test compound solution was added, resulting in the final test concentration with 0.5% DMSO. All outer wells were filled with assay medium to prevent evaporation. Plates were incubated for 5 days at 37° C. and 5% CO2.
After incubation the plates were spun down at 1500 rpm for 4 minutes and the supernatant was collected. Subsequently, the IL-17A levels in the supernatants was determined using an IL-17 ELISA kit (human IL-17 DuoSet, R&D systems) according to manufacturer's protocol.
The half maximum inhibitory concentration (IC50) values for the test compounds were calculated from the IL-17A signal using GraphPad Prism software (GraphPad Software).
(An ELISA detects its analyte on a solid surface through an enzyme-linked reagent.)

The next test has as its target T1, RORγ (Homo sapiens, UniProt P51449).
T1 sequence (P51449 269-508 limits assumed): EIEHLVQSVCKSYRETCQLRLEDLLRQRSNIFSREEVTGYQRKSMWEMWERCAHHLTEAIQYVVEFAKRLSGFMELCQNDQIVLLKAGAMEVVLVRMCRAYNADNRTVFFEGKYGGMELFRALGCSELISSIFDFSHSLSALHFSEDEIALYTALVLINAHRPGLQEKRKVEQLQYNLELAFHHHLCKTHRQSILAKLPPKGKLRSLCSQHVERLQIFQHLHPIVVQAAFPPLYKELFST
Kind of test: RORγ GAL4 reporter gene assay. Conditions: mean pIC50, inhibition of RORγ (GAL4-RORγ-LBD) in 293FT cells, luciferase readout, overnight incubation. For orientation: A reporter such as luciferase makes a cellular process visible.

Each structure is given as a SMILES string.

As to `CCS(=O)(=O)c1ccc(CC(=O)Nc2ccc(C(O)(C(F)(F)F)C(F)(F)F)cc2)cc1` [Example 2, 2-(4-(ethylsulfonyl)phenyl)-N-(4-(1,1,1,3,3,3-hexafluoro-2-hydroxypropan-2-yl)phenyl)acetamide], the IC50 in test [1] is no more than 1000 nM.
Consider `O=C(Cc1ccc(S(=O)(=O)NC2CC2)cc1)Nc1ccc(C(O)(C(F)(F)F)C(F)(F)F)c(F)c1` [Example 33, 2-(4-(N-cyclopropylsulfamoyl)phenyl)-N-(3-fluoro-4-(1,1,1,3,3,3-hexafluoro-2-hydroxypropan-2-yl)phenyl)acetamide], for which the IC50 against RORγ was no more than 100 nM; in test [1], no more than 1000 nM.
On the same counts, the results for `O=C(Cc1ccc(S(=O)(=O)NC2CC2)cc1)Nc1ccc(C(O)(C(F)(F)F)C(F)(F)F)cc1F` [Example 35, 2-(4-(N-cyclopropylsulfamoyl)phenyl)-N-(2-fluoro-4-(1,1,1,3,3,3-hexafluoro-2-hydroxypropan-2-yl)phenyl)acetamide] are no more than 100 nM and no more than 1000 nM.
The compound `CC(C)CCC(O)(c1ccc(NC(=O)Cc2ccc(S(=O)(=O)CC3CC3)cc2)cc1)C(F)(F)F` (stereo not drawn) [Example 104, 2-(4-((cyclopropylmethyl)sulfonyl)phenyl)-N-(4-(1,1,1-trifluoro-2-hydroxy-5-methylhexan-2-yl)phenyl)acetamide] yielded an IC50 at RORγ of no more than 100 nM.
In the case of `O=C(Cc1ccc(S(=O)(=O)CC2CC2)cc1)Nc1ccc(C(O)(C2CC2)C2CC2)cc1` [Example 106, 2-(4-((cyclopropylmethyl)sulfonyl)phenyl)-N-(4-(dicyclopropyl(hydroxy)methyl)phenyl)acetamide], the IC50 against RORγ is no more than 100 nM.
On to `O=C(Cc1ccc(S(=O)(=O)CC2CC2)cc1)Nc1ccc(C(O)(C(F)(F)F)C(F)(F)F)cn1` [Example 107, 2-(4-((cyclopropylmethyl)sulfonyl)phenyl)-N-(5-(1,1,1,3,3,3-hexafluoro-2-hydroxypropan-2-yl)pyridin-2-yl)acetamide], for which the values for the IC50 (on RORγ; in test [1]) were no more than 100 nM and no more than 1000 nM, respectively.
With `CC(C)CCCC(O)(c1ccc(NC(=O)Cc2ccc(S(=O)(=O)CC3CC3)cc2)cc1)C(F)(F)F` (stereo not drawn) [Example 108, 2-(4-((cyclopropylmethyl)sulfonyl)phenyl)-N-(4-(1,1,1-trifluoro-2-hydroxy-6-methylheptan-2-yl)phenyl)acetamide], the IC50 at RORγ is no more than 100 nM.
`CC(C(=O)Nc1ccc(C(O)(C(F)(F)F)C(F)(F)F)cc1)c1ccc(S(=O)(=O)CC2CC2)cc1` (stereo not drawn) [Example 109, 2-(4-((cyclopropylmethyl)sulfonyl)phenyl)-N-(4-(1,1,1,3,3,3-hexafluoro-2-hydroxypropan-2-yl)phenyl)propanamide]: the IC50 at RORγ is no more than 100 nM.
In turn, `O=C(Cc1ccc(S(=O)(=O)CC2CC2)cc1)Nc1ccc(C(O)(C(F)(F)F)C(F)(F)F)nc1` [Example 110, 2-(4-((cyclopropylmethyl)sulfonyl)phenyl)-N-(6-(1,1,1,3,3,3-hexafluoro-2-hydroxypropan-2-yl)pyridin-3-yl)acetamide] came in with an IC50 at RORγ of no more than 1000 nM.
At RORγ, `CCS(=O)(=O)c1ccc(CC(=O)Nc2ccc(C(OCC(F)(F)F)(C(F)(F)F)C(F)(F)F)cc2)cc1` [Example 112, 2-(4-(ethylsulfonyl)phenyl)-N-(4-(1,1,1,3,3,3-hexafluoro-2-(2,2,2-trifluoroethoxy)propan-2-yl)phenyl)acetamide] displayed an IC50 of no more than 1000 nM.
At RORγ, `O=C(Cc1ccc(S(=O)(=O)CC2CC2)cc1)Nc1ccc(C(OCC(F)(F)F)(C(F)(F)F)C(F)(F)F)cc1` [Example 113, 2-(4-((cyclopropylmethyl)sulfonyl)phenyl)-N-(4-(1,1,1,3,3,3-hexafluoro-2-(2,2,2-trifluoroethoxy)propan-2-yl)phenyl)acetamide] returned an IC50 of no more than 100 nM.
The same measure, in the same setting: in the case of `O=C(Nc1ccc(C(O)(C(F)(F)F)C(F)(F)F)cc1)C(O)c1ccc(S(=O)(=O)CC2CC2)cc1` (stereo not drawn) [Example 114, 2-(4-((cyclopropylmethyl)sulfonyl)phenyl)-N-(4-(1,1,1,3,3,3-hexafluoro-2-hydroxypropan-2-yl)phenyl)-2-hydroxyacetamide] it was no more than 100 nM.

Source of the values: patent US9738600B2, “ROR gamma (RORγ) modulators” (LEAD PHARMA CEL MODELS IP B.V., priority 2013, dated 2017).
